The values below come from publication PMC10811921 (Virology Journal, 2024).

The target of the assay is T1, furin (Homo sapiens, UniProt P09958).
T1 construct: recombinant soluble human furin
The assay can be described thus: fluorogenic protease assay with Pyr-RTKR-AMC substrate. Type of assay: biochemical.

T1 sequence (P09958 108-715): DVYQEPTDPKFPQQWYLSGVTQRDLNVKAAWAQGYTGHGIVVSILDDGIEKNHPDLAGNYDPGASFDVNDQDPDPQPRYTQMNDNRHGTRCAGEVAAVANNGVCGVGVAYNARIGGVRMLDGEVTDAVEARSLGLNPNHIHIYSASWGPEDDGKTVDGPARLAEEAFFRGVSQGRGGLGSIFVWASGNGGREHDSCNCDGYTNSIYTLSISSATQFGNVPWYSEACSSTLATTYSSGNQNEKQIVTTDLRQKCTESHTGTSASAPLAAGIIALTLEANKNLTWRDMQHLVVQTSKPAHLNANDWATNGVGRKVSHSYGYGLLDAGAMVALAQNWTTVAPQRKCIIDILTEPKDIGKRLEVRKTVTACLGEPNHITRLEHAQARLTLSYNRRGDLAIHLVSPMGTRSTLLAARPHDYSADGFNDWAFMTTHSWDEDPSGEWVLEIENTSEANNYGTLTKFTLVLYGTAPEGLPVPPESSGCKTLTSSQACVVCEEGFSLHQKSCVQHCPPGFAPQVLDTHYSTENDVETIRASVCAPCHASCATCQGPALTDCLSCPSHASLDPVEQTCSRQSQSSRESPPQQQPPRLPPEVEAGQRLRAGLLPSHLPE

Turning to `O=c1c(O)c(-c2ccc(O)c(O)c2)oc2cc(O)cc(O)c12` [QC, quercetin], the IC50 was about 116 µM.
